Test results as given in patent publication US20070071762A1, “COMPREHENSIVE DIAGNOSTIC TESTING PROCEDURES FOR PERSONALIZED ANTICANCER CHEMOTHERAPY (PAC)” (CCC Diagnostics, LLC, priority 2005, published 2007).
Values after ≈ are worked out from the molar mass of the structure shown. Like-named read-outs stand apart in the source and are kept apart here. Each block holds one molecule with its values, some of them ahead of it.

Legend:
T47D cells = assay: WST-8 growth inhibition of cultured breast cancer cells; type: cell-based, human; conditions: for IC50: Homo sapiens
Protocol: (§1) In another example, the expression of thymidylate synthase (TS) was correlated with the response of breast cancer cells to the chemotherapeutic drug 5-fluorouracil (5-FU). TS is a key enzyme in DNA biosynthesis and has been postulated to play a major role in predicting the response to 5-FU based chemotherapy. Experiments were conducted to examine this relationship. […] Doses ranged from 5-300 μg/ml.

HCC 202 cells = assay: as above; type: cell-based, human; conditions: for IC50: Homo sapiens
Protocol: as §1

HCC 2218 cells = assay: as above; type: cell-based, human; conditions: for IC50: Homo sapiens
Protocol: as §1

HCC 38 cells = assay: as above; type: cell-based, human; conditions: for IC50: Homo sapiens
Protocol: as §1

MCF-7 cells [1] = assay: as above; type: cell-based, human; conditions: for IC50: Homo sapiens, MCF7, 5-FU, doses ranged from 5-300 μg/ml
Protocol: as §1

SKBR-3 cells [2] = assay: as above; type: cell-based, human; conditions: for IC50: Homo sapiens, SK-BR-3, 5-FU, doses ranged from 5-300 μg/ml
Protocol: as §1

SKBR-3 cells [3] = assay: as above; type: cell-based; conditions: Homo sapiens, SK-BR-3, 72 hours post treatment
MCF-7 cells [4] = assay: as above; type: cell-based; conditions: Homo sapiens, 72 hours post treatment
MDA-MB231 cells = conditions: MDA-MB 231 cells
Protocol: For experimental conditions, cell suspensions containing 10^4 viable cells were plated into 96 well plates in 100 μl of media, and allowed to attach for 24 hours at 37° C. in a 5% CO2 atmosphere. After this incubation period, the cells were exposed to the drug at the designated doses, which were based on peak plasma concentration (PPC), as determined by published pharmacokinetic analyses. […] Media containing 0.5% FCS was then added to each well in order to maximize ER expression. Control wells contained 100 μl of the appropriate media and were treated identically to the test wells. At 72 hours post treatment, the plates were subjected to WST-8 analysis. WST-8 is a tetrazolium salt that is bioreduced by cellular dehydrogenases to yield a colored formazan product. The amount of the formazan product is directly proportional to the number of living cells. […] The absorbance of each well was measured at 460 nm using a Biotek microplate reader. For each concentration of drugs the mean absorbance±the SE was calculated. Results are expressed as % inhibition of growth compared with drug concentration. IC50 values will be determined using the median effect plot of (log fa/log fu) vs log C where fu=fraction unaffected, fa=fraction affected and C=drug concentration.

IC50 (T47D cells; 5-FU, doses ranged from 5-300 μg/ml, read-out: IC50-1 FU): 8.64 µg/mL (≈ 66.4 µM)
IC50 (T47D cells; 5-FU, doses ranged from 5-300 μg/ml, read-out: IC50-2 FU): 6.72 µg/mL (≈ 51.7 µM)
IC50 (HCC 202 cells; HCC202, 5-FU, HCC 202 cells, doses ranged from 5-300 μg/ml, read-out: IC50-1 FU): 181 µg/mL (≈ 1390 µM)
IC50 (HCC 202 cells; HCC202, 5-FU, HCC 202 cells, doses ranged from 5-300 μg/ml, read-out: IC50-2 FU): 162 µg/mL (≈ 1250 µM)
IC50 (HCC 2218 cells; HCC2218, 5-FU, HCC 2218 cells, doses ranged from 5-300 μg/ml, read-out: IC50-1 FU): 246 µg/mL (≈ 1890 µM)
IC50 (HCC 38 cells; HCC38, 5-FU, HCC 38 cells, doses ranged from 5-300 μg/ml, read-out: IC50-1 FU): 216 µg/mL (≈ 1660 µM)
IC50 (MCF-7 cells [1]; read-out: IC50-1 FU): 10 µg/mL (≈ 76.9 µM)
IC50 (MCF-7 cells [1]; read-out: IC50-2 FU): 15.2 µg/mL (≈ 117 µM)
IC50 (SKBR-3 cells [2]; read-out: IC50-1 FU): 23.3 µg/mL (≈ 179 µM)
IC50 (SKBR-3 cells [2]; read-out: IC50-2 FU): 33.7 µg/mL (≈ 259 µM)
Structure (SMILES): O=c1[nH]cc(F)c(=O)[nH]1 [5 Fluorouracil, 5-fluorouracil]
biological response to drug treatment (in words) (T47D cells): responding to lower doses
biological response to drug treatment (in words) (HCC 202 cells; HCC 202 cells): responded only to higher doses
biological response to drug treatment (in words) (HCC 2218 cells; HCC 2218 cells): responded only to higher doses
biological response to drug treatment (in words) (HCC 38 cells; HCC 38 cells): responded only to higher doses
biological response to drug treatment (in words) (MCF-7 cells [1]): responding to lower doses
biological response to drug treatment (in words) (SKBR-3 cells [2]): responding to lower doses

IC50 (SKBR-3 cells [3]; Docetaxel, SKBR3 cells, read-out: IC50-1): 6.6 µg/mL (≈ 8.17 µM)
IC50 (SKBR-3 cells [3]; Docetaxel, SKBR3 cells, read-out: IC50-2): 12.5 µg/mL (≈ 15.5 µM)
IC50 (MCF-7 cells [4]; MCF7, Docetaxel, read-out: IC50-1): 1 µg/mL (≈ 1.24 µM)
IC50 (MCF-7 cells [4]; MCF7, Docetaxel, read-out: IC50-2): 0.8 µg/mL (≈ 0.99 µM)
IC50 (T47D cells; Docetaxel, 72 hours post treatment, read-out: IC50-1): 5.5 µg/mL (≈ 6.81 µM)
IC50 (T47D cells; Docetaxel, 72 hours post treatment, read-out: IC50-2): 4.5 µg/mL (≈ 5.57 µM)
IC50 (HCC 202 cells; Docetaxel, HCC202 cells, 72 hours post treatment, read-out: IC50-1): 25.5 µg/mL (≈ 31.6 µM)
IC50 (HCC 202 cells; Docetaxel, HCC202 cells, 72 hours post treatment, read-out: IC50-2): 22 µg/mL (≈ 27.2 µM)
IC50 (HCC 2218 cells; HCC2218, Docetaxel, HCC 2218 cells, 72 hours post treatment, read-out: IC50-1): 25 µg/mL (≈ 30.9 µM)
IC50 (HCC 2218 cells; HCC2218, Docetaxel, HCC 2218 cells, 72 hours post treatment, read-out: IC50-2): 18 µg/mL (≈ 22.3 µM)
IC50 (HCC 38 cells; Docetaxel, HCC38 cells, 72 hours post treatment, read-out: IC50-1): 58 µg/mL (≈ 71.8 µM)
IC50 (HCC 38 cells; Docetaxel, HCC38 cells, 72 hours post treatment, read-out: IC50-2): 59.9 µg/mL (≈ 74.1 µM)
Structure (SMILES): CC(=O)O[C@@]12CO[C@@H]1C[C@H](O)[C@@]1(C)C(=O)[C@H](O)C3=C(C)[C@@H](OC(=O)[C@H](O)[C@@H](NC(=O)OC(C)(C)C)c4ccccc4)C[C@@](O)([C@@H](OC(=O)c4ccccc4)[C@H]21)C3(C)C [Docetaxel, docetaxel]
biological response to drug treatment (in words) (T47D cells): sensitive
biological response to drug treatment (in words) (HCC 202 cells; HCC 202 cells): resistant
biological response to drug treatment (in words) (HCC 2218 cells; HCC 2218 cells): response only to higher doses
biological response to drug treatment (in words) (HCC 38 cells; HCC 38 cells): response only to higher doses
biological response to drug treatment (in words) (MCF-7 cells [1]): sensitive
biological response to drug treatment (in words) (SKBR-3 cells [2]): sensitive

IC50 (SKBR-3 cells [3]; Paclitaxel, SKBR-3 cells, read-out: IC50-1): 10 µg/mL (≈ 11.7 µM)
IC50 (SKBR-3 cells [3]; Paclitaxel, SKBR-3 cells, read-out: IC50-2): 8.5 µg/mL (≈ 9.95 µM)
IC50 (MCF-7 cells [4]; MCF7, Paclitaxel, read-out: IC50-1): 6 µg/mL (≈ 7.03 µM)
IC50 (MCF-7 cells [4]; MCF7, Paclitaxel, read-out: IC50-2): 7.1 µg/mL (≈ 8.31 µM)
IC50 (T47D cells; Paclitaxel, 72 hours post treatment, read-out: IC50-1): 3 µg/mL (≈ 3.51 µM)
IC50 (T47D cells; Paclitaxel, 72 hours post treatment, read-out: IC50-2): 3.6 µg/mL (≈ 4.22 µM)
IC50 (HCC 202 cells; HCC202, Paclitaxel, HCC 202 cells, 72 hours post treatment, read-out: IC50-1): > 50 µg/mL
IC50 (HCC 202 cells; HCC202, Paclitaxel, HCC 202 cells, 72 hours post treatment, read-out: IC50-2): > 50 µg/mL
IC50 (HCC 2218 cells; Paclitaxel, HCC2218 cells, 72 hours post treatment, read-out: IC50-1): > 50 µg/mL
IC50 (HCC 2218 cells; Paclitaxel, HCC2218 cells, 72 hours post treatment, read-out: IC50-2): > 50 µg/mL
IC50 (HCC 38 cells; HCC38, Paclitaxel, HCC 38 cells, 72 hours post treatment, read-out: IC50-1): > 50 µg/mL
IC50 (HCC 38 cells; HCC38, Paclitaxel, HCC 38 cells, 72 hours post treatment, read-out: IC50-2): > 50 µg/mL
Structure (SMILES): CC(=O)O[C@H]1C(=O)[C@@]2(C)[C@H]([C@H](OC(=O)c3ccccc3)[C@]3(O)C[C@H](OC(=O)[C@H](O)[C@@H](NC(=O)c4ccccc4)c4ccccc4)C(C)=C1C3(C)C)[C@]1(OC(C)=O)CO[C@@H]1C[C@@H]2O [Paclitaxel, paclitaxel]
biological response to drug treatment (in words) (T47D cells): sensitive
biological response to drug treatment (in words) (HCC 202 cells; HCC 202 cells): resistant
biological response to drug treatment (in words) (HCC 2218 cells; HCC 2218 cells): displayed a response to PTX, but did not express an IC50 value
biological response to drug treatment (in words) (HCC 38 cells; HCC 38 cells): displayed a response to PTX, but did not express an IC50 value
biological response to drug treatment (in words) (MCF-7 cells [1]): sensitive
biological response to drug treatment (in words) (SKBR-3 cells [2]): sensitive

Structure (SMILES): CC/C(=C(\c1ccccc1)c1ccc(OCCN(C)C)cc1)c1ccccc1 [Tamoxifen, tamoxifen]
biological response to drug treatment (in words) (MDA-MB231 cells): much less sensitive response
biological response to drug treatment (in words) (MCF-7 cells [1]): high sensitivity
biological response to drug treatment (in words) (SKBR-3 cells [2]): much less sensitive response
